Data taken from ChEMBL document CHEMBL1777780, “Discovery of XEN907, a spirooxindole blocker of NaV1.7 for the treatment of pain” (Bioorg Med Chem Lett, 2011).

Assay: Permeability from apical to basolateral side in human Caco2 cells
Assay type: ADME, cell-based
Details: Caco-2, read-out: permeability

Compound | Papp A→B
O=C1N(Cc2ccc3c(c2)OCO3)c2ccccc2C1(O)c1ccc2c(c1)OCO2 (configuration not stated) | 7.7 ×10⁻⁶ cm/s
O=C1N(Cc2ccc(Cl)cc2)c2ccccc2C1(O)c1ccc2c(c1)OCO2 (configuration not stated) | 9 ×10⁻⁶ cm/s
O=C1N(Cc2ccc(Cl)cc2)c2ccccc2C1(O)c1ccccc1 (configuration not stated) | 13.1 ×10⁻⁶ cm/s
O=C1N(Cc2ccc(C(F)(F)F)cc2)c2ccccc2C1(O)c1ccc2c(c1)OCO2 (configuration not stated) | 5.4 ×10⁻⁶ cm/s
COc1ccc(CN2C(=O)C(O)(c3ccc4c(c3)OCO4)c3ccccc32)cc1 (configuration not stated) | 6.5 ×10⁻⁶ cm/s
O=C1N(CCC2CC2)c2ccccc2C1(O)c1ccc2c(c1)OCO2 (configuration not stated) | 19.9 ×10⁻⁶ cm/s
CCCCCN1C(=O)C(C)(c2ccc3c(c2)OCO3)c2ccccc21 (configuration not stated) | 2.4 ×10⁻⁶ cm/s
CCCCCN1C(=O)C(N)(c2ccc3c(c2)OCO3)c2ccccc21 (configuration not stated) | 22 ×10⁻⁶ cm/s
CCCCCN1C(=O)C2(CCc3cc4c(cc32)OCO4)c2ccccc21 (configuration not stated) | 1.1 ×10⁻⁶ cm/s
O=C1N(Cc2ccccc2)c2ccccc2C1(O)c1ccc2c(c1)OCO2 (configuration not stated) | 9.3 ×10⁻⁶ cm/s
O=C1N(Cc2ccc(Cl)cc2)c2ccccc2C1(O)c1ccc2c(c1)OCCO2 (configuration not stated) | 1.9 ×10⁻⁶ cm/s
CCCCCN1C(=O)C2(COc3cc4c(cc32)OCO4)c2ccccc21 (configuration not stated) | 5.9 ×10⁻⁶ cm/s
CCC(C)CCN1C(=O)C(O)(c2ccc3c(c2)OCO3)c2ccccc21 (configuration not stated) | 10.5 ×10⁻⁶ cm/s
O=C1N(CC2CCC2)c2ccccc2C1(O)c1ccc2c(c1)OCO2 (configuration not stated) | 21.7 ×10⁻⁶ cm/s
CCCCCN1C(=O)C(O)(c2ccc3c(c2)OCO3)c2ccccc21 (configuration not stated) | 28.9 ×10⁻⁶ cm/s

Assay: Permeability from basolateral to apical side in human Caco2 cells
Assay type: ADME, cell-based
Details: Caco-2, read-out: permeability

Compound | Papp B→A
O=C1N(Cc2ccc3c(c2)OCO3)c2ccccc2C1(O)c1ccc2c(c1)OCO2 (configuration not stated) | 12.1 ×10⁻⁶ cm/s
O=C1N(Cc2ccc(Cl)cc2)c2ccccc2C1(O)c1ccc2c(c1)OCO2 (configuration not stated) | 10.9 ×10⁻⁶ cm/s
O=C1N(Cc2ccc(Cl)cc2)c2ccccc2C1(O)c1ccccc1 (configuration not stated) | 12.5 ×10⁻⁶ cm/s
O=C1N(Cc2ccc(C(F)(F)F)cc2)c2ccccc2C1(O)c1ccc2c(c1)OCO2 (configuration not stated) | 7.9 ×10⁻⁶ cm/s
COc1ccc(CN2C(=O)C(O)(c3ccc4c(c3)OCO4)c3ccccc32)cc1 (configuration not stated) | 11.9 ×10⁻⁶ cm/s
O=C1N(CCC2CC2)c2ccccc2C1(O)c1ccc2c(c1)OCO2 (configuration not stated) | 19.8 ×10⁻⁶ cm/s
CCCCCN1C(=O)C(C)(c2ccc3c(c2)OCO3)c2ccccc21 (configuration not stated) | 3.6 ×10⁻⁶ cm/s
CCCCCN1C(=O)C(N)(c2ccc3c(c2)OCO3)c2ccccc21 (configuration not stated) | 22.3 ×10⁻⁶ cm/s
CCCCCN1C(=O)C2(CCc3cc4c(cc32)OCO4)c2ccccc21 (configuration not stated) | 1.6 ×10⁻⁶ cm/s
O=C1N(Cc2ccccc2)c2ccccc2C1(O)c1ccc2c(c1)OCO2 (configuration not stated) | 13.6 ×10⁻⁶ cm/s
O=C1N(Cc2ccc(Cl)cc2)c2ccccc2C1(O)c1ccc2c(c1)OCCO2 (configuration not stated) | 3.5 ×10⁻⁶ cm/s
CCCCCN1C(=O)C2(COc3cc4c(cc32)OCO4)c2ccccc21 (configuration not stated) | 7.2 ×10⁻⁶ cm/s
CCC(C)CCN1C(=O)C(O)(c2ccc3c(c2)OCO3)c2ccccc21 (configuration not stated) | 11.5 ×10⁻⁶ cm/s
O=C1N(CC2CCC2)c2ccccc2C1(O)c1ccc2c(c1)OCO2 (configuration not stated) | 21.1 ×10⁻⁶ cm/s
CCCCCN1C(=O)C(O)(c2ccc3c(c2)OCO3)c2ccccc21 (configuration not stated) | 25.4 ×10⁻⁶ cm/s

Assay: Metabolic stability in rat hepatocytes assessed as compound remaining after 2 hrs
Assay type: ADME, cell-based, Hepatocyte
Details: read-out: Stability

remaining at 2 h | Compound
21% | CCCCCN1C(=O)C2(COc3cc4c(cc32)OCO4)c2ccccc21 (configuration not stated)

Assay: Metabolic stability in human hepatocytes assessed as compound remaining after 2 hrs
Assay type: ADME, cell-based, Hepatocyte
Details: read-out: Stability

remaining at 2 h | Compound
34% | CCCCCN1C(=O)C2(COc3cc4c(cc32)OCO4)c2ccccc21 (configuration not stated)

Assay: Metabolic stability in dog hepatocytes assessed as compound remaining after 2 hrs
Assay type: ADME, cell-based, Canis lupus familiaris, Hepatocyte
Details: read-out: Stability

remaining at 2 h | Compound
46% | CCCCCN1C(=O)C2(COc3cc4c(cc32)OCO4)c2ccccc21 (configuration not stated)

Assay: Cmax in Lewis rat at 10 mg/kg, po
Assay type: ADME, organism-based
Parameters: dose 10 mg/kg, route oral
Details: in vivo

Cmax | Compound
35 ng/mL | CCCCCN1C(=O)C2(COc3cc4c(cc32)OCO4)c2ccccc21 (configuration not stated)

Assay: AUClast in Lewis rat at 10 mg/kg, po
Assay type: ADME, organism-based
Parameters: time 0 - last, dose 10 mg/kg, route oral
Details: plasma

AUC(0-t) | Compound
143 ng·h/mL | CCCCCN1C(=O)C2(COc3cc4c(cc32)OCO4)c2ccccc21 (configuration not stated)

Assay: Tmax in Lewis rat at 10 mg/kg, po
Assay type: ADME, organism-based
Parameters: dose 10 mg/kg, route oral
Details: in vivo

Tmax | Compound
0.33 h | CCCCCN1C(=O)C2(COc3cc4c(cc32)OCO4)c2ccccc21 (configuration not stated)

Assay: Oral bioavailability in Lewis rat at 10 mg/kg
Assay type: ADME, organism-based
Details: in vivo

bioavailability | Compound
13% | CCCCCN1C(=O)C2(COc3cc4c(cc32)OCO4)c2ccccc21 (configuration not stated)

Assay: Cmax in Lewis rat at 3 mg/kg, iv
Assay type: ADME, organism-based
Parameters: dose 3 mg/kg, route intravenous
Details: in vivo

Cmax | Compound
953 ng/mL | CCCCCN1C(=O)C2(COc3cc4c(cc32)OCO4)c2ccccc21 (configuration not stated)

Assay: AUClast in Lewis rat at 3 mg/kg, iv
Assay type: ADME, organism-based
Parameters: time 0 - last, dose 3 mg/kg, route intravenous
Details: plasma

AUC(0-t) | Compound
320 ng·h/mL | CCCCCN1C(=O)C2(COc3cc4c(cc32)OCO4)c2ccccc21 (configuration not stated)

Assay: Half life in Lewis rat at 3 mg/kg, iv
Assay type: ADME, organism-based
Parameters: dose 3 mg/kg, route intravenous
Details: in vivo

half-life | Compound
2.6 h | CCCCCN1C(=O)C2(COc3cc4c(cc32)OCO4)c2ccccc21 (configuration not stated)

Assay: Volume of distribution at steady state in Lewis rat at 3 mg/kg, iv
Assay type: ADME, organism-based
Parameters: dose 3 mg/kg, route intravenous
Details: in vivo, read-out: Vdss

Vd | Compound
35 L/kg | CCCCCN1C(=O)C2(COc3cc4c(cc32)OCO4)c2ccccc21 (configuration not stated)

Assay: Clearance in Lewis rat at 3 mg/kg, iv
Assay type: ADME, organism-based
Parameters: dose 3 mg/kg, route intravenous
Details: in vivo

clearance | Compound
157 mL/min/kg | CCCCCN1C(=O)C2(COc3cc4c(cc32)OCO4)c2ccccc21 (configuration not stated)
